Among the data in ChEMBL document CHEMBL5465560, “Selectivity Literature for EUbOPEN Chemogenomic Library” (2024) are % of inhibition, % of control and % of engagement values, retold here.

Each structure is given as a SMILES string.

For test [1], the target named is G protein-coupled receptor kinase 5 (Homo sapiens, UniProt P34947). Nature of the test: Selectivity interaction (Upstate Kinase Profiler service (Millipore)) EUB0000056c GRK5. As to conditions: at 1 µM.
Test [2] addresses T1, Mitogen-activated protein kinase kinase kinase 6 (Homo sapiens) (UniProt O95382).
T1 sequence (whole entry): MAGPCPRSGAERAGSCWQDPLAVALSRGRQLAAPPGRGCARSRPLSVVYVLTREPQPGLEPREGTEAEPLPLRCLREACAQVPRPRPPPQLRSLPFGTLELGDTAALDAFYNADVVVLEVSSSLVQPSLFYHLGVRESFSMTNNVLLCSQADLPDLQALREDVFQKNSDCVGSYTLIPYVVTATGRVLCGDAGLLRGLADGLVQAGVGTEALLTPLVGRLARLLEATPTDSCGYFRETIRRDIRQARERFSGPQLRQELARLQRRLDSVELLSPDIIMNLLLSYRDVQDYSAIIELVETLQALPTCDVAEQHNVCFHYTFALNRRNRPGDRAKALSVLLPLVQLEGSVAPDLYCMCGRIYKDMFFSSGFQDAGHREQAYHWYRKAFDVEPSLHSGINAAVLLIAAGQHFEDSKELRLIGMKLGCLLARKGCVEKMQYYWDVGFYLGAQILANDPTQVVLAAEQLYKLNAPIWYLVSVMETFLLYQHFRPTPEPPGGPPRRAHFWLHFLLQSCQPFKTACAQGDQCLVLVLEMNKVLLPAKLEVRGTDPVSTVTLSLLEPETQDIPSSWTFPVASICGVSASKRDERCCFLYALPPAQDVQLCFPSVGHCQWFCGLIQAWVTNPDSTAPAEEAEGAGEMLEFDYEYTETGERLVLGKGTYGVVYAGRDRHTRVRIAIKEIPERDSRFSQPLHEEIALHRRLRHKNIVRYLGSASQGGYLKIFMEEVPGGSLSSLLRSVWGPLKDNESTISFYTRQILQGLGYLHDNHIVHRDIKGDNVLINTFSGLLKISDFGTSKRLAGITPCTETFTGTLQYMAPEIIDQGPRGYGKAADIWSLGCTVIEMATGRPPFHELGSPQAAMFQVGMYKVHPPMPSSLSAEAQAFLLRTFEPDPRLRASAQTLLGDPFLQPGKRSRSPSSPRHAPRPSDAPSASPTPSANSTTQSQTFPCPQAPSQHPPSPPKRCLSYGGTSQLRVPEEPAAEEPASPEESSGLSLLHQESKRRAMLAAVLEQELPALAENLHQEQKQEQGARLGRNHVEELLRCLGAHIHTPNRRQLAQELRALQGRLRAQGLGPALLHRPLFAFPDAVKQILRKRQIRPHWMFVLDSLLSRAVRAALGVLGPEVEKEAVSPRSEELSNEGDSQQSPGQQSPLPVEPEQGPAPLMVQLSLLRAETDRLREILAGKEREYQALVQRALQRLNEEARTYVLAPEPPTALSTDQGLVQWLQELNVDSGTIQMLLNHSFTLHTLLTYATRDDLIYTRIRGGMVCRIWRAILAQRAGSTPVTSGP
Nature of the test: Selectivity interaction (KinomeScan (DiscoverX)) EUB0000092b MAP3K6. As to conditions: at 10 µM.

Test [3] has as its target Myosin light chain kinase 2, skeletal/cardiac muscle (Homo sapiens) (UniProt Q9H1R3). Nature of the test: Selectivity interaction (Kinase panel (Z-LYTE Assay)) EUB0001632a MYLK2. The settings on record: at 10 µM.
Test [4] deals with Cyclin-dependent kinase 7 (Homo sapiens, UniProt P50613). Nature of the test: Selectivity interaction (ActivX KiNativ screen (kinase selectivity in THP-1 cell lysates)) EUB0000639a CDK7. As to conditions: lysate. It is filed as subcellular.
Cyclin-dependent kinase 7, sequence (P50613 whole entry): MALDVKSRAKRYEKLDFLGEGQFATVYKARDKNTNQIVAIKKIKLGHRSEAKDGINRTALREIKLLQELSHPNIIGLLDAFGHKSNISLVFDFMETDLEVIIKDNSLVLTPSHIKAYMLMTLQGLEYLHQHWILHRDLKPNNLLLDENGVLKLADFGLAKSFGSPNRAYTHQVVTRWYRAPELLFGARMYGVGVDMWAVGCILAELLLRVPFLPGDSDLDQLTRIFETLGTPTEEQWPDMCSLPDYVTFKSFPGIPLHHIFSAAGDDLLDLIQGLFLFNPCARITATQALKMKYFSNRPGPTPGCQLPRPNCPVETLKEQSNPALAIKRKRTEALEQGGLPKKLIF
Test [5] addresses Ribosomal protein S6 kinase beta-1 (Homo sapiens, UniProt P23443). Nature of the test: Selectivity interaction (Kinase panel (Invitrogen)) EUB0000639a RPS6KB1. The settings on record: at 200 nM.
For test [6], the target named is T2, Phosphatidylinositol 5-phosphate 4-kinase type-2 gamma (Homo sapiens) (UniProt Q8TBX8).
T2 sequence (whole entry): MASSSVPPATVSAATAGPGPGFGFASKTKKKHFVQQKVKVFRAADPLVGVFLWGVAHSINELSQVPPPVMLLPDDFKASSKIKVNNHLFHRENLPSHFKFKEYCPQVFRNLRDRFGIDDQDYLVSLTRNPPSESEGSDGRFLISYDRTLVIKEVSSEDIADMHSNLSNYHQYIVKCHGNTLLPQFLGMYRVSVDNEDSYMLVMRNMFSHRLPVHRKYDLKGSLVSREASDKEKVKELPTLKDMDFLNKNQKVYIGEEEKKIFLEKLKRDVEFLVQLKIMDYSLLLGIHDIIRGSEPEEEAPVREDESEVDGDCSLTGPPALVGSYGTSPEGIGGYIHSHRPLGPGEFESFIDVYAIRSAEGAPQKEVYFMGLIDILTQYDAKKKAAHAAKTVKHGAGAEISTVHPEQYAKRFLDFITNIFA
Nature of the test: Selectivity interaction (Kinase panel (KiNativ target engagement assay in Jurkat cells)) EUB0001635a PIP4K2C. It is filed as cell-based. As to conditions: Selectivity number of off-targets 0.0, Selectivity number of targets 233.0, Source Knowledge https://www.sciencedirect.com/science/article/pii/S2451945619300674?via%3Dihub, at 1 µM.

G protein-coupled receptor kinase 5, sequence (P34947 whole entry, looked up): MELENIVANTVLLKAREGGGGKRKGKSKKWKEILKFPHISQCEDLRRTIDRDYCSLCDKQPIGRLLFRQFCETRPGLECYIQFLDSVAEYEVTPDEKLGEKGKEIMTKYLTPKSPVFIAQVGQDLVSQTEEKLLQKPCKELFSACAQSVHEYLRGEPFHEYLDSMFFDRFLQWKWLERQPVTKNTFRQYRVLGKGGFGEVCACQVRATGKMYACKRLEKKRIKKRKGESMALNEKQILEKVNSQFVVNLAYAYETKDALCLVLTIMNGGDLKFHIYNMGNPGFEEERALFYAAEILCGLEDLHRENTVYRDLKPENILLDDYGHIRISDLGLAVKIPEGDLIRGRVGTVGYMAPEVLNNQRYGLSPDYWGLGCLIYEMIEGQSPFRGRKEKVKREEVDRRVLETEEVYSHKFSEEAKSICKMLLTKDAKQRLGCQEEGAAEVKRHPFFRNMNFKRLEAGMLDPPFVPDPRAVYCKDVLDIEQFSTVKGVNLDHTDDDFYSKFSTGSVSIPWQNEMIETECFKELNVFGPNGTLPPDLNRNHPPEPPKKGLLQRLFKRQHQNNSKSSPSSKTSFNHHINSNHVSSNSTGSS
Myosin light chain kinase 2, skeletal/cardiac muscle (Homo sapiens), sequence (Q9H1R3 whole entry): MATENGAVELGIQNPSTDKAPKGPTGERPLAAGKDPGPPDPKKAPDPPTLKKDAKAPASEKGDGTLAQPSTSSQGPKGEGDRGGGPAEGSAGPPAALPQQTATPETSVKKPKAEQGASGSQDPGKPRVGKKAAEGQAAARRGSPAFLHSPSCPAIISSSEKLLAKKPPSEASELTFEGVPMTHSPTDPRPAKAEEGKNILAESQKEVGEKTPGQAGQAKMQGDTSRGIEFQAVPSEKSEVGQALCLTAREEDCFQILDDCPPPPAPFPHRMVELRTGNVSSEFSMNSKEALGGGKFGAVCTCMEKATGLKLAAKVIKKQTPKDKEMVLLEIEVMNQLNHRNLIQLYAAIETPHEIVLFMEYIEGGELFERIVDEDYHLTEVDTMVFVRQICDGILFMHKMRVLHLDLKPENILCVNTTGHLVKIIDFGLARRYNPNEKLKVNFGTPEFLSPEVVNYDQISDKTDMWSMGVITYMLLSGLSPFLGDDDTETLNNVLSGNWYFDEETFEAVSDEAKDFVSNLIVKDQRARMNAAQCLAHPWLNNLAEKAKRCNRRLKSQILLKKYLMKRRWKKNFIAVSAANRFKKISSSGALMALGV
Ribosomal protein S6 kinase beta-1, sequence (P23443 whole entry, looked up): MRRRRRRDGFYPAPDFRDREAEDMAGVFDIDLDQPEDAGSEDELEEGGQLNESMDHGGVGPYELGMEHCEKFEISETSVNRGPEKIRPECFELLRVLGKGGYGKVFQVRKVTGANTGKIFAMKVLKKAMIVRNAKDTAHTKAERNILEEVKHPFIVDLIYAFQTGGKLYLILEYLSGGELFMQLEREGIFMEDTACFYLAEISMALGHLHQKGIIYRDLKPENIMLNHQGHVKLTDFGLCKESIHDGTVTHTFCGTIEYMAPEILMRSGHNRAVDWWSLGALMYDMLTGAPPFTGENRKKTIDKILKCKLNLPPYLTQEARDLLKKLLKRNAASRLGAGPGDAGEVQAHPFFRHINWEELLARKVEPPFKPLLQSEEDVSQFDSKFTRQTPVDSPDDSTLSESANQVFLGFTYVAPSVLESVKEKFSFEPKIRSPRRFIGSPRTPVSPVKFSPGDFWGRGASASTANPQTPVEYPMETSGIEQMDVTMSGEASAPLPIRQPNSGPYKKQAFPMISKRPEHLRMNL

For the compound `Cc1ccc(-c2ccc3c(ccc4sc5c(c43)NC[C@@H](C)NC5=O)n2)cn1`, the % of inhibition in test [1] was -23%.
For `CCC(=O)N1CCN(c2ccc(-n3c(=O)ccc4cnc5ccc(-c6cnc7ccccc7c6)cc5c43)cc2C(F)(F)F)CC1`, the % of control in test [2] amounted to 100%.
As to `Cn1cc(-n2cnc3c(NCc4nc5cc(Cl)c(Cl)cc5[nH]4)nc(N4CCOCC4)nc32)cn1`, the % of control in test [3] is 3.79%.
Turning to `CC[C@@H]1[C@H](F)C(=O)N[C@@H]1COc1nccc2cc(C(N)=O)c(OC)cc12` [ZIMLOVISERTIB], the % of inhibition in test [4] (at 0.01 µM) is -17%; in test [4] (at 0.04 µM), -0.9%; in test [4] (at 0.2 µM) it was -1.1%; in test [4] (at 1 µM), 20.9%; in test [4] (at 5 µM) it was 60%; in test [5], 17.4%.
Turning to `C=CC(=O)Nc1ccc(C(=O)Nc2[nH]nc3c2CN(C(=O)N[C@H](CN(C)C)c2ccccc2)C3(C)C)cc1`, the % of engagement in test [6] is -6.5%.
